Measurements as given in patent publication US12263248B2, “Compounds and compositions for intracellular delivery of therapeutic agents” (ModernaTX, Inc., priority 2018, dated 2025).
“Also recorded” adds a separate entry of the source. One block for each compound: values may come before it.

How the values were obtained:
[1] = system: luciferase (Luc) mRNA; test: Luc expression, whole body bioluminescence after intravenous administration to mice; assay type: in vivo; details: for Fold increase in total body Luc Flux relative to MC3 at 6 h: Table 3A; for Total Flux 3 hours / Total Flux 6 hours / Total Flux 24 hours / luciferase activity relative to MC3 LNP control / Average total flux (6 h, ffluc) / Fold increase in average total flux relative to MC3: mice; for Total Flux 3 hours / Total Flux 6 hours / Total Flux 24 hours: i.v., 0.5 mg/kg, Luc mRNA; for Fold increase in Luc expression relative to MC3, Intravenous (0.5 mpk dose) / luciferase activity relative to MC3 LNP control / Average total flux (6 h, ffluc) / Fold increase in average total flux relative to MC3: intravenous; for luciferase activity relative to MC3 LNP control: 0.5 mg/kg (mRNA dose); for Average total flux (6 h, ffluc) / Fold increase in average total flux relative to MC3: 6 h
Method in brief: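 Bioluminescence, read as region-of-interest total flux at 3, 6 and 24 h, followed a single 0.5 mg/kg intravenous dose of Luc mRNA-loaded nanoparticles in mice (n=6). Luciferin substrate (200 μL, 15 mg/mL in PBS) was injected intraperitoneally into CD-1 mice 15 minutes ahead of each imaging point.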

[2] = Encapsulation efficiency of RNA (QUANT-IT RIBOGREEN RNA assay); assay type: physicochemical; details: for % Encapsulation: lipid nanoparticle, ±SD within one assay run (Table 37)
Method in brief: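 RiboGreen fluorescence (ex ~480, em ~520 nm) compared between intact samples and Triton X-100-lysed samples after 15 min at 37 °C in TE buffer, pH 7.5. Percent free RNA is the blank-corrected intact/disrupted ratio.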

[3] = system: luciferase (Luc) mRNA; test: Luc expression (total flux) after intramuscular administration; assay type: in vivo, mice; details: for Total flux, 0.001 mpk Dose / Total flux, 0.01 mpk Dose: 6 hours after intramuscular administration; for Fold increase in Luc expression relative to MC3, Intramuscular (0.001 mpk dose) / Fold increase in Luc expression relative to MC3, Intramuscular (0.01 mpk dose) / Novel lipid/MC3 expression ratio, 6 hr. time point, i.m. Luc: intramuscular; for Novel lipid/MC3 expression ratio, 6 hr. time point, i.m. Luc: relative to MC3 formulation
Method in brief: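 Total-flux luciferase signal in mice after one intramuscular injection. Nanoparticle formulations contained modified Luc mRNA, either alone or co-dosed with H10 mRNA (e.g., 0.0005 or 0.005 mpk of each), giving 0.001 or 0.01 mpk.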

[4] = Apparent (surface) pKa of the LNP formulation (TNS assay); assay type: physicochemical
Method in brief: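 Fluorescence of TNS probe added to LNP samples (mRNA 0.04 mg/mL) was read across 21 buffers of pH about 3-12, triplicate per pH. The inflection point of the sigmoidal fluorescence-vs-pH curve, […], gives apparent pKa; method validated in 1× PBS and Tris/sucrose buffer.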

[5] = lipid:DSPC:Chol:PEG-DMG (50:10:38.5:1.5), hEPO mRNA
[6] = lipid nanoparticle, ±SD within one assay run (Table 37)
[7] = Table 1B, formulated with hEPO mRNA

SMILES: CCCCCCCCCCCCCCN(CCO)CCCCCCCC(=O)OC(CCCCCCCC)CCCCCCCC [Compound 2, Heptadecan-9-yl 8-((2-hydroxyethyl)(tetradecyl)amino)octanoate]
Fold increase in total body Luc Flux relative to MC3 at 6 h ([1]; i.v. administration): 1.31
Total Flux 3 hours [1]: 1.93E+10
Total Flux 6 hours [1]: 4.31E+10
Total Flux 24 hours [1]: 2.43E+09
EE (%) ([2]; Table 1A): 93.88%
Total flux, 0.001 mpk Dose ([3]; Luc mRNA and H10 mRNA): 3.55E+06 p/s
Total flux, 0.01 mpk Dose ([3]; Luc mRNA and H10 mRNA): 6.16E+07 p/s
pKa ([4]; Table 1A): 6.73

SMILES: CCCCCCCCCN(CCO)CCCCCCCC(=O)OC(CCCCCCCC)CCCCCCCC [Compound 3, Heptadecan-9-yl 8-((2-hydroxyethyl)(nonyl)amino)octanoate]
Fold increase in total body Luc Flux relative to MC3 at 6 h ([1]; i.v. administration): 2.24
Fold increase in Luc expression relative to MC3, Intravenous (0.5 mpk dose) [1]: 2.24
Total Flux 3 hours [1]: 6.55E+10
Total Flux 6 hours [1]: 7.37E+10
Total Flux 24 hours [1]: 4.96E+09
EE (%) ([2]; Table 1A): 92.25%
Total flux, 0.001 mpk Dose ([3]; Luc mRNA and H10 mRNA): 3.58E+06 p/s
Total flux, 0.01 mpk Dose ([3]; Luc mRNA and H10 mRNA): 4.95E+07 p/s
Fold increase in Luc expression relative to MC3, Intramuscular (0.001 mpk dose) [3]: 0.51
Fold increase in Luc expression relative to MC3, Intramuscular (0.01 mpk dose) [3]: 1.13
pKa ([4]; Table 1A): 6.72
pKa ([4]; Table 6): 6.72

SMILES: CCCCCCCCC(CCCCCCCC)OC(=O)CCCCCCCN(CCO)CCCCCC [Compound 5, Heptadecan-9-yl 8-(hexyl(2-hydroxyethyl)amino)octanoate]
Fold increase in total body Luc Flux relative to MC3 at 6 h ([1]; i.v. administration): 0.005
Total Flux 3 hours [1]: 2.77E+08
Total Flux 6 hours [1]: 1.76E+08
Total Flux 24 hours [1]: 2.40E+07
EE (%) ([2]; Table 1A): 77.07%
Total flux, 0.001 mpk Dose ([3]; Luc mRNA and H10 mRNA): 9.84E+05 p/s
Total flux, 0.01 mpk Dose ([3]; Luc mRNA and H10 mRNA): 3.55E+06 p/s
pKa ([4]; Table 1A): 6.84

SMILES: CCCCC/C=C\C/C=C\CCCCCCCCN(CCO)CCCCCCCC(=O)OC(CCCCCCCC)CCCCCCCC [Compound 6, Heptadecan-9-yl 8-((2-hydroxyethyl)((9Z,12Z)-octadeca-9,12-dien-1-yl)amino)octanoate]
Fold increase in total body Luc Flux relative to MC3 at 6 h ([1]; i.v. administration): 1.15
Total Flux 3 hours [1]: 5.38E+09
Total Flux 6 hours [1]: 7.60E+09
Total Flux 24 hours [1]: 7.69E+08
luciferase activity relative to MC3 LNP control [1]: Equivalent expression to MC3 LNPs
Average total flux (6 h, ffluc) [1]: 7.60 × 10^9
Fold increase in average total flux relative to MC3 [1]: 1.15
EE (%) ([2]; Table 1A): 97.60%
% Encapsulation [2]: 97.6 ± 1.2%
EE [2, 5]: 97.84%
pKa ([4]; Table 1A): 6.32
pKa [4, 6]: 6.32 ± 0.05

SMILES: CCCCCCCCCN(CCCO)CCCCCCCC(=O)OC(CCCCCCCC)CCCCCCCC [Compound 7, Heptadecan-9-yl 8-((3-hydroxypropyl)(nonyl)amino)octanoate]
Total Flux 3 hours [1]: 4.13E+10
Total Flux 6 hours [1]: 4.03E+10
Total Flux 24 hours [1]: 1.68E+09
EE (%) ([2]; Table 1A): 86.10%
Total flux, 0.001 mpk Dose ([3]; Luc mRNA and H10 mRNA): 3.65E+06 p/s
Total flux, 0.01 mpk Dose ([3]; Luc mRNA and H10 mRNA): 7.48E+07 p/s
pKa ([4]; Table 1A): 6.75
App. pKa ([4]; Table 3F): 6.74

SMILES: CCCCCCCCCOC(=O)CCCCCCCN(CCCCCCCC(=O)OC(CCCCCCCC)CCCCCCCC)C[C@H](C)O [Compound 12, Heptadecan-9-yl (S)-8-((2-hydroxypropyl)(8-(nonyloxy)-8-oxooctyl)amino)octanoate]
Total Flux 3 hours [1]: 5.14E+09
Total Flux 6 hours [1]: 1.27E+10
Total Flux 24 hours [1]: 2.45E+08
EE (%) ([2]; Table 1A): 92.44%
Total flux, 0.001 mpk Dose ([3]; Luc mRNA and H10 mRNA): 8.02E+04 p/s
Total flux, 0.01 mpk Dose ([3]; Luc mRNA and H10 mRNA): 8.90E+05 p/s
pKa ([4]; Table 1A): 5.99

SMILES: CCCCCCCCCOC(=O)CCCCCCCN(CCO)CCCCCCCC(=O)OC(CCCCCCCC)CCCCCCCC [Compound 18, Heptadecan-9-yl 8-((2-hydroxyethyl)(8-(nonyloxy)-8-oxooctyl)amino)octanoate]
Fold increase in total body Luc Flux relative to MC3 at 6 h ([1]; i.v. administration): 3.22
fold increase in Luc expression over MC3 formulations ([1]; intravenous administration, in words): highest fold increase
Fold increase in Luc expression relative to MC3, Intravenous (0.5 mpk dose) [1]: 3.23
Total Flux 3 hours [1]: 1.71E+10
Total Flux 6 hours [1]: 2.13E+10
Total Flux 24 hours [1]: 2.51E+09
luciferase activity relative to MC3 LNP control [1]: 3 fold
Average total flux (6 h, ffluc) [1]: 2.13 × 10^10
Fold increase in average total flux relative to MC3 [1]: 3.23
EE (%) ([2]; Table 1A): 95.9%
EE (%) [2, 7]: 96.95%
% EE ([2]; Table 1D, for subcutaneous administration, # formulated with hEPO mRNA): 96.2%
% Encapsulation [2]: 97.5 ± 0.2%
EE [2, 5]: 97.34%
EE ([2]; nanoparticle composition with hEPO mRNA (Table 30)): 85.56%
EE ([2]; nanoparticle composition with mRNA encoding anti-HA antibody (Table 33)): 79.3%
% EE ([2]; nanoparticle of rat tolerability study (Table 43)): 91%
Total flux, 0.01 mpk Dose ([3]; Luc mRNA and H10 mRNA): 8.84E+07 p/s
Fold increase in Luc expression relative to MC3, Intramuscular (0.01 mpk dose) [3]: 2.01
pKa ([4]; Table 1A): 6.56
pKa ([4]; Table 6): 6.56
pKa [4, 6]: 6.56 ± 0.13

SMILES: CCCCCCCCCOC(=O)CCCCCCCN(CCCO)CCCCCCCC(=O)OC(CCCCCCCC)CCCCCCCC [Compound 19, Heptadecan-9-yl 8-((3-hydroxypropyl)(8-(nonyloxy)-8-oxooctyl)amino) octanoate]
Fold increase in total body Luc Flux relative to MC3 at 6 h ([1]; i.v. administration): 0.96
Total Flux 3 hours [1]: 3.38E+10
Total Flux 6 hours [1]: 3.56E+09
Total Flux 24 hours [1]: 4.68E+08
EE (%) ([2]; Table 1A): 97.21%
% EE ([2]; Table 1E, compositions for subcutaneous administration): 93%
Total flux, 0.001 mpk Dose ([3]; Luc mRNA and H10 mRNA): 3.28E+06 p/s
Total flux, 0.01 mpk Dose ([3]; Luc mRNA and H10 mRNA): 2.96E+07 p/s
Novel lipid/MC3 expression ratio, 6 hr. time point, i.m. Luc [3]: 3.68
pKa ([4]; Table 1A): 6.78

SMILES: CCCCCCCCCOC(=O)CCCCCCCN(CCCCO)CCCCCCCC(=O)OC(CCCCCCCC)CCCCCCCC [Compound 20, Heptadecan-9-yl 8-((4-hydroxybutyl)(8-(nonyloxy)-8-oxooctyl)amino) octanoate]
Fold increase in total body Luc Flux relative to MC3 at 6 h ([1]; i.v. administration): 0.80
Fold increase in Luc expression relative to MC3, Intravenous (0.5 mpk dose) [1]: 0.80
Total Flux 3 hours [1]: 1.71E+10
Total Flux 6 hours [1]: 2.48E+10
Total Flux 24 hours [1]: 5.40E+08
EE (%) ([2]; Table 1A): 96.72%
% EE ([2]; Table 1C, compositions for subcutaneous administration): 91.6%
Total flux, 0.001 mpk Dose ([3]; Luc mRNA and H10 mRNA): 2.59E+07 p/s
Luc expression upon intramuscular administration ([3]; Luc mRNA and H10 mRNA, doses of 0.001 and 0.01 mpk, in words): highest expression at both dose levels; also recorded: equivalent expression to the high dose of MC3
fold increase in Luc expression over MC3 formulations ([3]; intramuscular administration, in words): highest fold increase
Fold increase in Luc expression relative to MC3, Intramuscular (0.001 mpk dose) [3]: 3.70
Fold increase in Luc expression relative to MC3, Intramuscular (0.01 mpk dose) [3]: 2.21
Novel lipid/MC3 expression ratio, 6 hr. time point, i.m. Luc [3]: 2.21
pKa ([4]; Table 1A): 6.87
pKa ([4]; Table 6): 6.87

SMILES: CCCCC/C=C\C/C=C\CCCCCCCCN(CCO)CCCCCCCC(=O)OCCCCCCCCC [Compound 136, Nonyl 8-((2-hydroxyethyl)((9Z,12Z)-octadeca-9,12-dien-1-yl)amino)octanoate]
Total Flux 3 hours [1]: 7.21E+08
Total Flux 6 hours [1]: 7.33E+08
Total Flux 24 hours [1]: 3.39E+07
EE (%) ([2]; Table 1A): 90.9%
% Encapsulation [2]: 90.9 ± 0.9%
pKa ([4]; Table 1A): 6.95
pKa [4, 6]: 6.95 ± 0.13

EE (%) ([2]; Table 1A): 88.31%
EE (%) [2, 7]: 91.0%
pKa ([4]; Table 1A): 6.66
SMILES: CCCCCCCCCOC(=O)CCCCCCCN(CCO)CCCCCCCCCC(=O)OC(CCCCCC)CCCCCC [Compound 147, Tridecan-7-yl 10-((2-hydroxyethyl)(8-(nonyloxy)-8-oxooctyl)amino)decanoate]
6 h Lipid/MC3 Avg. Luc Expression ([1]; Table 3C, i.v. administration): 6.68
Fold increase AUC Lipid/MC3 ([1]; Table 3C, i.v. administration): 6.83
AUC (h * p/s) ([1]; Table 3C, i.v. administration, Luc): 5.63E+11 h * p/s
Total Flux 3 hours [1]: 3.24E+10
Total Flux 6 hours [1]: 4.87E+10
Total Flux 24 hours [1]: 3.32E+08
